The assay has as its system Raf-1^gof intestinal tumors. The note with it: for Fold: luciferase relative to DMSO, fed three consecutive days in vials; for Log2 (fold) of luciferase activity relative to DMSO controls / Fold (luciferase activity relative to DMSO controls): ICCB compounds fed in vials to flies with one-day old Raf-1^gof tumors.
Where [1] appears, read: screen of 480 ICCB compounds in vials, compounds fed to flies with one-day old Raf-1^gof tumors, assessed three days later, esg-Gal4 luciferase.
Setting [2] is: screen of 480 ICCB compounds in vials, compounds fed to flies with one-day old Raf-1^gof tumors, assessed three days later, esg-Gal4 luciferase, averaged from multiple wells.
[3] abbreviates: Table 3 summary of hits, Screen ICCB.
Setting [4] is: assessed three days later, averaged from multiple wells.

Read-outs that look alike come from different tables or passages of the source. Square brackets hold non-standard residues; d marks the D form. Peptide text beside a SMILES is read from it. * marks the point of attachment. Sta = CC(C)C[C@H](N)[C@@H](O)CC(=O)O; Isovaleryl = CC(C)CC(=O)*
Throughout, for Fold (luciferase activity relative to DMSO controls): test concentration or dose not given here.
Throughout, for Fold (luciferase activity, fold difference relative to DMSO controls): test concentration or dose not given here.
Throughout, for Log2 (fold) (luciferase activity, log2 of the fold difference relative to DMSO controls): test concentration or dose not given here.
Throughout, for Log2 (fold) of luciferase activity relative to DMSO controls: test concentration or dose not given here.

In the case of `C=C[C@@]1(C)CC(=O)[C@]2(O)[C@@]3(C)[C@@H](O)CCC(C)(C)[C@@H]3[C@H](O)[C@H](OC(C)=O)[C@@]2(C)O1` [forskolin], the “Log2 (fold) (luciferase activity, log2 of the fold difference relative to DMSO controls)” value under setting [1] is recorded as −0.449. The “Fold (luciferase activity, fold difference relative to DMSO controls)” value under setting [2] is given as 0.732.

For `COC1=C2C[C@@H](C)C[C@H](OC)[C@H](O)[C@@H](C)/C=C(\C)[C@H](OC(N)=O)[C@@H](OC)/C=C\C=C(/C)C(=O)NC(=CC1=O)C2=O` [geldanamycin], the “Log2 (fold) (luciferase activity, log2 of the fold difference relative to DMSO controls)” value under setting [1] was −0.772. In addition, the “Fold (luciferase activity, fold difference relative to DMSO controls)” value under setting [2] is recorded as 0.586.

With `O=c1c(-c2ccc(O)cc2)coc2cc(O)cc(O)c12` [genistein], the “Log2 (fold) (luciferase activity, log2 of the fold difference relative to DMSO controls)” value under setting [1] is −0.275. The “Fold (luciferase activity, fold difference relative to DMSO controls)” value under setting [2] is on record as 0.826.

With `COc1ccc2c(c1)c(CC(=O)O)c(C)n2C(=O)c1ccc(Cl)cc1` [indomethacin], the “Log2 (fold) (luciferase activity, log2 of the fold difference relative to DMSO controls)” value under setting [1] is listed as −0.549. The “Fold (luciferase activity, fold difference relative to DMSO controls)” value under setting [2] stood at 0.683.

`C[C@H](CCC(=O)O)C[C@H](C)C[C@H](C)C(=O)/C=C(\O)[C@H](C)C[C@H](C)C/C=C/[C@@H](C)[C@@H](O)[C@@H](C)[C@@H](O)C[C@@H]1CC[C@@](C)([C@H]2CC[C@@](C)([C@@H](C)O)O2)O1` [ionomycin]: the “Log2 (fold) (luciferase activity, log2 of the fold difference relative to DMSO controls)” value under setting [1] is listed as −0.591. Also, the “Fold (luciferase activity, fold difference relative to DMSO controls)” value under setting [2] was found to be 0.664.

For `CCCC[C@@H](C)/C=C(C)/C=C(\C)C(=O)NC1=C[C@@](O)(/C=C/C=C/C=C/C(=O)NC2=C(O)CCC2=O)[C@@H]2O[C@@H]2C1=O` [manumycin A], the “Log2 (fold) (luciferase activity, log2 of the fold difference relative to DMSO controls)” value under setting [1] is given as −0.233. Also, the “Fold (luciferase activity, fold difference relative to DMSO controls)” value under setting [2] was 0.851.

In the case of `C=C1[C@@H](O)[C@@H]2O[C@]3(CC[C@H](/C=C/[C@@H](C)[C@@H]4CC(C)=C[C@@]5(O[C@H](C[C@@](C)(O)C(=O)O)CC[C@H]5O)O4)O3)CC[C@H]2O[C@@H]1[C@@H](O)C[C@H](C)[C@H]1O[C@@]2(CCCCO2)CC[C@H]1C` [okadaic acid, reference compound], the Fold under setting [3] worked out at 0.305 fold. Also, under setting [1], the “Log2 (fold) (luciferase activity, log2 of the fold difference relative to DMSO controls)” value is recorded as −1.713. For the same molecule, the “Fold (luciferase activity, fold difference relative to DMSO controls)” value under setting [2] was determined as 0.305.

With `CC[C@@H]1/C=C/C=C/C[C@H](C)[C@H](O)[C@](C)(O)C(=O)[C@H](C)[C@@H](O)[C@H](C)C(=O)[C@H](C)[C@@H](O)[C@H](C)/C=C/C(=O)O[C@H]2[C@@H](C)[C@@H](CC1)O[C@@]1(CC[C@@H](C)[C@@H](C[C@H](C)O)O1)[C@@H]2C` [oligomycin A, reference compound], under setting [3], the Fold is on record as 0.457 fold. Also, the “Log2 (fold) (luciferase activity, log2 of the fold difference relative to DMSO controls)” value under setting [1] is on record as −1.131. Under setting [2], the “Fold (luciferase activity, fold difference relative to DMSO controls)” value is listed as 0.457.

`Cn1cnc2c(NCc3ccccc3)nc(NCCO)nc21` [olomoucine]: the “Log2 (fold) (luciferase activity, log2 of the fold difference relative to DMSO controls)” value under setting [1] is −0.406. Moreover, the “Fold (luciferase activity, fold difference relative to DMSO controls)” value under setting [2] amounted to 0.755.

Take `CC(C)CC(=O)N[C@H](C(=O)N[C@H](C(=O)N[C@@H](CC(C)C)[C@@H](O)CC(=O)N[C@@H](C)C(=O)N[C@@H](CC(C)C)[C@@H](O)CC(=O)O)C(C)C)C(C)C` [pepstatin] (Isovaleryl-VV[Sta]A[Sta]-OH): the “Log2 (fold) (luciferase activity, log2 of the fold difference relative to DMSO controls)” value under setting [1] is reported as −0.491. Further, the “Fold (luciferase activity, fold difference relative to DMSO controls)” value under setting [2] turned out to be 0.711.

For `CCCCCCCCCCCCCC(=O)O[C@@H]1[C@@H](C)[C@@]2(O)[C@@H](C=C(CO)C[C@]3(O)C(=O)C(C)=C[C@@H]23)[C@@H]2C(C)(C)[C@]12OC(C)=O` [phorbol 12 myristate 13 acetate], the “Log2 (fold) (luciferase activity, log2 of the fold difference relative to DMSO controls)” value under setting [1] is reported as −0.323. Also, under setting [2], the “Fold (luciferase activity, fold difference relative to DMSO controls)” value amounted to 0.799.

Regarding `CN1C(C(=O)Nc2ccccn2)=C(O)c2ccccc2S1(=O)=O` [piroxicam], where the note is “assessed three days later”, the “Log2 (fold) of luciferase activity relative to DMSO controls” value stood at 0.147. The “Fold (luciferase activity relative to DMSO controls)” value under setting [4] is given as 1.107 fold.

In the case of `COc1cc2nc(N3CCN(C(=O)c4ccco4)CC3)nc(N)c2cc1OC` [prazocin], where the note is “assessed three days later”, the “Log2 (fold) of luciferase activity relative to DMSO controls” value is listed as 0.011. Also, the “Fold (luciferase activity relative to DMSO controls)” value under setting [4] was 1.008 fold.

As to `CC[N+](C)(CC)CCC[n+]1c(-c2ccccc2)c2cc(N)ccc2c2ccc(N)cc21.[I-].[I-]` [propidium iodide], for the setting “assessed three days later”, the “Log2 (fold) of luciferase activity relative to DMSO controls” value is recorded as 0.100. Further, the “Fold (luciferase activity relative to DMSO controls)” value under setting [4] is given as 1.072 fold.

Take `COc1ccc(C[C@H](N)C(=O)N[C@H]2[C@@H](O)[C@H](n3cnc4c(N(C)C)ncnc43)O[C@@H]2CO)cc1` [puromycin]: under “assessed three days later”, the “Log2 (fold) of luciferase activity relative to DMSO controls” value turned out to be 0.281. For the same molecule, under setting [4], the “Fold (luciferase activity relative to DMSO controls)” value is 1.215 fold.

For `O=c1c(O)c(-c2ccc(O)c(O)c2)oc2cc(O)cc(O)c12` [quercetin], for the setting “in vivo”, the “Fold (luciferase activity, fold difference relative to DMSO controls)” value stood at 0.737 and the “Log2 (fold) (luciferase activity, log2 of the fold difference relative to DMSO controls)” value is reported as −0.440.

Consider `Oc1ccc(C=Cc2cc(O)cc(O)c2)cc1` [resveratrol], for which the “Log2 (fold) (luciferase activity, log2 of the fold difference relative to DMSO controls)” value under setting [1] was −0.551. In addition, under setting [2], the “Fold (luciferase activity, fold difference relative to DMSO controls)” value was found to be 0.682.

Turning to `CC[C@H](CO)Nc1nc(NCc2ccccc2)c2ncn(C(C)C)c2n1` [roscovitine], where the note is “in vivo”, the “Fold (luciferase activity, fold difference relative to DMSO controls)” value was found to be 0.659 and the “Log2 (fold) (luciferase activity, log2 of the fold difference relative to DMSO controls)” value is listed as −0.602.

Take `NCCc1c[nH]c2ccc(O)cc12` [serotonin]: the “Log2 (fold) of luciferase activity relative to DMSO controls” value (assessed three days later) is given as 0.266. Also, the “Fold (luciferase activity relative to DMSO controls)” value under setting [4] was 1.203 fold.

Regarding `CN/C(=N\c1ccc(C2=NNC(=O)CC2C)cc1)NC#N` (stereo not drawn) [siguazodan], the “Log2 (fold) (luciferase activity, log2 of the fold difference relative to DMSO controls)” value under setting [1] is on record as −0.376. Besides, the “Fold (luciferase activity, fold difference relative to DMSO controls)” value under setting [2] turned out to be 0.771.

Turning to `O[C@H]1[C@H]2[C@H](O)CCCN2C[C@H]1O` [swainsonine], the “Log2 (fold) (luciferase activity, log2 of the fold difference relative to DMSO controls)” value under setting [1] was −0.233. Under setting [2], the “Fold (luciferase activity, fold difference relative to DMSO controls)” value turned out to be 0.851.

Take `CC/C(=C(\c1ccccc1)c1ccc(OCCN(C)C)cc1)c1ccccc1` [tamoxifen, reference compound]: the Fold under setting [3] is given as 0.339 fold. The “Log2 (fold) (luciferase activity, log2 of the fold difference relative to DMSO controls)” value under setting [1] is −1.562. The “Fold (luciferase activity, fold difference relative to DMSO controls)” value under setting [2] is 0.339.

Regarding `CC(/C=C/C(=O)NO)=C\[C@@H](C)C(=O)c1ccc(N(C)C)cc1` [trichostatin-A], the “Log2 (fold) of luciferase activity relative to DMSO controls” value (assessed three days later) is −0.109. Moreover, the “Fold (luciferase activity relative to DMSO controls)” value under setting [4] was 0.927 fold.

With `CN1CCN(CCCN2c3ccccc3Sc3ccc(C(F)(F)F)cc32)CC1` [trifluoperazine], for the setting “assessed three days later”, the “Log2 (fold) of luciferase activity relative to DMSO controls” value is on record as −0.206. For the same molecule, the “Fold (luciferase activity relative to DMSO controls)” value under setting [4] was found to be 0.867 fold.

With `CC(C)[C@]12O[C@H]1[C@@H]1O[C@]13[C@]1(O[C@H]1C[C@H]1C4=C(CC[C@@]13C)C(=O)OC4)[C@@H]2O` [triptolide, reference compound], under setting [3], the “Log2 (fold)” value is on record as −2.553.

Turning to `CC(C)(C)c1cc(C=C(C#N)C#N)cc(C(C)(C)C)c1O` [tyrphostin 9], the “Log2 (fold) of luciferase activity relative to DMSO controls” value (assessed three days later) was 0.671. Moreover, under setting [4], the “Fold (luciferase activity relative to DMSO controls)” value came to 1.592 fold.

The record behind these values is patent US20130096067A1, “DROSOPHILA TUMOR STEM CELL MODEL AND USES THEREOF” (priority 2011, published 2013).
